In US8829011B2 (Janssen Pharmaceutica NV, priority 2008, dated 2014):
Where a name gives a salt, the structure may show the parent alone.

How the values were obtained:
rat 5-HT7a receptor = biological target: T1, rat 5-HT7a receptor (Rattus norvegicus, UniProt P32305); assay: Affinity for 5-HT7 receptor binding sites (competition radioligand binding, [3H]5-CT); conditions: membranes of HEK-293 cells with rat 5-HT7a; 1 nM [3H]5-CT; * = tested as hydrochloride salt
T1 construct: expressed in transfected cells; host or cells: HEK-293
Description: Stock drug solutions (10 mM) were prepared in DMSO (the final assay concentration of DMSO not exceeding 0.4%). Drug dilutions were prepared in assay buffer.
Sigmoidal inhibition curves were generated and fitted by nonlinear regression analysis (GraphPad Prism).
1. Affinity for 5-HT7 Receptor Binding Sites
The affinity of the compounds described in this invention for the 5-HT7 receptor binding site was evaluated by single competition radioligand binding assay. The assay was performed on membranes prepared from HEK-293 cells that had been subjected to stable transfection with the rat 5-HT7a receptor (GB: NM022938). Cells were scraped from the culture plates, suspended in Tris-HCl 50 mM pH 7.5 and collected through centrifugation (1000 rpm for 5 min). The cell pellets were homogenized (Polytron, 15 s, setting 5) in 50 mM Tris-HCl (pH 7.5), 5 mM EDTA. Following centrifugation (15,000 rpm for 25 min), membranes (135 μg protein/mL) were resuspended in the same buffer and incubated for 60 min at RT with 1 nM [^3H]5-CT in the presence of increasing concentration of test compounds. Nonspecific binding was defined in the presence of 10 μM 5-HT. Incubation was stopped by rapid filtration using the cell harvester (Packard). Radioactivity was counted in a TopCount-NXT (Packard). Experiments were conducted in triplicate.

[1] = biological target: T2, human recombinant 5-HT2B receptor (Homo sapiens, UniProt P41595); assay: Affinity for 5-HT2B receptor binding sites (competitive radioligand binding, [3H]mesulergine); conditions: membranes of CHO with h5-HT2B, * = tested as hydrochloride salt
T2 construct: expressed in transfected cells; host or cells: CHO
In short: (§1)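 Membranes from NIH3T3 cells stably expressing h5-HT2A or CHO cells stably expressing h5-HT2B/h5-HT2C; [3H]ketanserin used for 5-HT2A, [3H]mesulergine for 5-HT2B/2C. Compounds from 10 mM DMSO stocks, final DMSO ≤0.4%. Affinity from sigmoidal inhibition curves fitted by nonlinear regression.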

[2] = biological target: T3, human recombinant 5-HT6 receptor (Homo sapiens, UniProt P50406); assay: Affinity for 5-HT6 receptor binding sites (competitive radioligand binding, [3H]LSD); conditions: membranes of HEK-293 with h5-HT6, * = tested as hydrochloride salt
T3 construct: expressed in transfected cells; host or cells: HEK-293
In short: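 Membranes from HEK-293 cells stably expressing human 5-HT6, competition against [3H]LSD; nonspecific binding defined with 1 μM clozapine. DMSO ≤0.4% final. Inhibition curves fitted by nonlinear regression.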

[3] = biological target: T4, human recombinant 5-HT2C receptor (Homo sapiens, UniProt P28335); assay: Affinity for 5-HT2C receptor binding sites (competitive radioligand binding, [3H]mesulergine); conditions: membranes of CHO with h5-HT2C, * = tested as hydrochloride salt
T4 construct: expressed in transfected cells; host or cells: CHO
T4 sequence (P28335 33-458): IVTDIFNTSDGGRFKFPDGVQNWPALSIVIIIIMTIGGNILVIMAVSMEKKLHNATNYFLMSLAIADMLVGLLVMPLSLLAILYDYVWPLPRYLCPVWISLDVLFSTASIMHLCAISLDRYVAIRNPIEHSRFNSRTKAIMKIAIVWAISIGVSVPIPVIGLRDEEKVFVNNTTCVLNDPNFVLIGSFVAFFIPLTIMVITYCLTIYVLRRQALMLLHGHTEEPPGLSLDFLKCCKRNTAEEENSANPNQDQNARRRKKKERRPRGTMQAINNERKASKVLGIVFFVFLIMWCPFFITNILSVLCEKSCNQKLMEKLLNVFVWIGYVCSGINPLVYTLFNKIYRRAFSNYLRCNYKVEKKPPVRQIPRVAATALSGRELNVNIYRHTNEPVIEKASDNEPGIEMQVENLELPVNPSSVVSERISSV
In short: as §1

[4] = biological target: T5, human recombinant 5-HT2A receptor (Homo sapiens, UniProt P28223); assay: Affinity for 5-HT2A receptor binding sites (competitive radioligand binding, [3H]ketanserin); conditions: membranes of NIH3T3 with h5-HT2A, * = tested as hydrochloride salt
T5 construct: expressed in transfected cells; host or cells: NIH3T3
In short: as §1

T2 sequence (P41595 whole entry): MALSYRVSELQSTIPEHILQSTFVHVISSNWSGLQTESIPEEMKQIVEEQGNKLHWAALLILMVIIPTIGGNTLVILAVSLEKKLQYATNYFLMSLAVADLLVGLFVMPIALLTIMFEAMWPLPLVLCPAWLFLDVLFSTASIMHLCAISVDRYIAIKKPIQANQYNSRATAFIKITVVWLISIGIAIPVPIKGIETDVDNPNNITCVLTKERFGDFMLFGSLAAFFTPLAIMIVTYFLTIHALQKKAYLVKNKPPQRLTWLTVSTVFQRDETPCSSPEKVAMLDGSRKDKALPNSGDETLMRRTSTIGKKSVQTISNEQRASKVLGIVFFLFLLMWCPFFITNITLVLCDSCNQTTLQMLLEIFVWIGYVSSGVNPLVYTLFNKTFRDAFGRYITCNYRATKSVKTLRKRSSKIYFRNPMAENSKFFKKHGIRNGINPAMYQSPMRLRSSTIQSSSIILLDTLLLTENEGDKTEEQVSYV
T3 sequence (P50406 whole entry): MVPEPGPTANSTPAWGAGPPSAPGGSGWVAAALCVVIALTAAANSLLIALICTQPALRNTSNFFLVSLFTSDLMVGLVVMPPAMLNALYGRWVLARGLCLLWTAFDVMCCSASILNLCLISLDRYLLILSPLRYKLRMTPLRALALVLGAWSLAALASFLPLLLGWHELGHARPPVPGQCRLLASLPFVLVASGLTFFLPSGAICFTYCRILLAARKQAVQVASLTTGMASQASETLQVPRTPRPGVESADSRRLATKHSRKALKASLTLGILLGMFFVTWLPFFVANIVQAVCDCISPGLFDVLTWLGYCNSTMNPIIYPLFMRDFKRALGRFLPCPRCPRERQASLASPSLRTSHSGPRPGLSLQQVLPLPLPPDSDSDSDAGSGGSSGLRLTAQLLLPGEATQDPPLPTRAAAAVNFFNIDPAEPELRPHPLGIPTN
T1 sequence (P32305 whole entry): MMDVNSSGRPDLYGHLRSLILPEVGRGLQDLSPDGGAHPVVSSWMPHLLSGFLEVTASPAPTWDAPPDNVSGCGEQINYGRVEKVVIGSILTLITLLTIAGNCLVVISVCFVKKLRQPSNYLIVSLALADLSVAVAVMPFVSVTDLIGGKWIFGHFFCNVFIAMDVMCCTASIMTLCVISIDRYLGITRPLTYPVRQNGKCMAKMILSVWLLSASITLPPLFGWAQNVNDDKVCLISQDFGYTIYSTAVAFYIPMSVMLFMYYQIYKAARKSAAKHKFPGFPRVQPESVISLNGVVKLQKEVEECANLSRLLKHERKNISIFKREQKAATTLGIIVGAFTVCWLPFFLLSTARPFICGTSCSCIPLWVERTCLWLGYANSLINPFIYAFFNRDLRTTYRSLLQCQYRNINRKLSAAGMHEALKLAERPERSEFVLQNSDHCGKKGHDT
T5 sequence (P28223 whole entry): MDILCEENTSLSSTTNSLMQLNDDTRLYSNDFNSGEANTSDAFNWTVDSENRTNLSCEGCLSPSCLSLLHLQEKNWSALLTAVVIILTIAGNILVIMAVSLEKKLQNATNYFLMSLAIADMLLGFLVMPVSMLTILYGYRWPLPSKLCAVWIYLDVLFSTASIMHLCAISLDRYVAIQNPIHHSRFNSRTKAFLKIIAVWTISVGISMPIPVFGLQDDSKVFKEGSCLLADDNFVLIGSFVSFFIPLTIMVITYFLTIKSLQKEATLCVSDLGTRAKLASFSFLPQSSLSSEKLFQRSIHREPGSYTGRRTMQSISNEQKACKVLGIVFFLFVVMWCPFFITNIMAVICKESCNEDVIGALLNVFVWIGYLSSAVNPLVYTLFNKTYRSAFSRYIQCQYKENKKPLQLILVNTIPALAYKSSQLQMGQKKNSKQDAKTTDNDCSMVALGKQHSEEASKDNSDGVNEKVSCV

## CCN(CC)c1nc2c(c(-c3ccc(Cl)cc3)n1)CCNCC2 [Example 60, [4-(4-Chloro-phenyl)-6,7,8,9-tetrahydro-5H-pyrimido[4,5-d]azepin-2-yl]-diethyl-amine]
Rat 5-HT7a receptor
  Ki: 41 nM
[1]
  Ki: 10 nM
[2]
  Ki: > 10000 nM
[3]
  Ki: 100 nM
[4]
  Ki: 20 nM

## CCN(CC)c1nc2c(c(-c3ccc(C)cc3)n1)CCNC2 [Example 26, Diethyl-(4-p-tolyl-5,6,7,8-tetrahydro-pyrido[3,4-d]pyrimidin-2-yl)-amine]
Rat 5-HT7a receptor
  Ki: 100 nM
[1]
  Ki: 13 nM
[2]
  Ki: 316 nM
[3]
  Ki: 200 nM
[4]
  Ki: 7 nM

## CCN(CC)c1nc2c(c(-c3ccc(OC)cc3)n1)CCNCC2 [Example 13, Diethyl-[4-(4-methoxy-phenyl)-6,7,8,9-tetrahydro-5H-pyrimido[4,5-d]azepin-2-yl]-amine hydrochloride]
Rat 5-HT7a receptor
  Ki: 32 nM
[1]
  Ki: 0.8 nM
[2]
  Ki: 28 nM
[3]
  Ki: 40 nM
[4]
  Ki: 10 nM

## CCN(CC)c1nc2c(c(-c3ccc(C)cc3)n1)CCNCC2 [Example 11, Diethyl-(4-p-tolyl-6,7,8,9-tetrahydro-5H-pyrimido[4,5-d]azepin-2-yl)-amine hydrochloride]
Rat 5-HT7a receptor
  Ki: 40 nM
[1]
  Ki: 5 nM
[2]
  Ki: 25 nM
[3]
  Ki: 63 nM
[4]
  Ki: 4 nM

## CC1CCCCN1c1nc2c(c(-c3ccc(F)cc3)n1)CCCNC2 (stereo not shown) [Example 6, 4-(4-Fluoro-phenyl)-2-(2-methyl-piperidin-1-yl)-6,7,8,9-tetrahydro-5H-pyrimido[4,5-c]azepine]
Rat 5-HT7a receptor
  Ki: > 10000 nM
[1]
  Ki: 200 nM
[2]
  Ki: 310 nM
[3]
  Ki: 1000 nM
[4]
  Ki: 200 nM

## Cc1ccc(-c2nc(N3CCCCC3)nc3c2CNCC3)cc1 [Example 50, 2-Piperidin-1-yl-4-p-tolyl-5,6,7,8-tetrahydro-pyrido[4,3-d]pyrimidine]
Rat 5-HT7a receptor
  Ki: 350 nM
[1]
  Ki: 160 nM
[2]
  Ki: 776 nM
[3]
  Ki: 130 nM
[4]
  Ki: 30 nM

## Cc1ccc(-c2nc(NCc3ccccc3)nc3c2CNCC3)cc1 [Example 51, Benzyl-(4-p-tolyl-5,6,7,8-tetrahydro-pyrido[4,3-d]pyrimidin-2-yl)-amine]
Rat 5-HT7a receptor
  Ki: 320 nM
[1]
  Ki: 700 nM
[2]
  Ki: 912 nM
[3]
  Ki: 100 nM
[4]
  Ki: 75 nM

## Cc1ccc(-c2nc(N3CCCCC3C)nc3c2CCCNC3)cc1 (stereo not shown) [Example 8, 2-(2-Methyl-piperidin-1-yl)-4-p-tolyl-6,7,8,9-tetrahydro-5H-pyrimido[4,5-c]azepine]
Rat 5-HT7a receptor
  Ki: 500 nM
[1]
  Ki: 100 nM
[2]
  Ki: 68 nM
[3]
  Ki: 2000 nM
[4]
  Ki: 180 nM

## CCN(CC)c1nc2c(c(-c3ccc(C#N)cc3)n1)CCNC2 [Example 30, 4-(2-Diethylamino-5,6,7,8-tetrahydro-pyrido[3,4-d]pyrimidin-4-yl)-benzonitrile]
Rat 5-HT7a receptor
  Ki: 300 nM
[1]
  Ki: 60 nM
[2]
  Ki: 3720 nM
[3]
  Ki: 1400 nM
[4]
  Ki: 48 nM

## CCN(CC)c1nc2c(c(-c3ccsc3)n1)CCNCC2 [Example 12, Diethyl-(4-thiophen-3-yl-6,7,8,9-tetrahydro-5H-pyrimido[4,5-d]azepin-2-yl)-amine hydrochloride]
Rat 5-HT7a receptor
  Ki: 40 nM
[1]
  Ki: 3.2 nM
[2]
  Ki: 80 nM
[3]
  Ki: 50 nM
[4]
  Ki: 30 nM

## CC1CCCN1c1nc2c(c(-c3ccc(F)cc3)n1)CNCC2 (stereo not shown) [Example 38, 4-(4-Fluoro-phenyl)-2-(2-methyl-pyrrolidin-1-yl)-5,6,7,8-tetrahydro-pyrido[4,3-d]pyrimidine hydrochloride]
Rat 5-HT7a receptor
  Ki: > 10000 nM
[1]
  Ki: 50 nM
[2]
  Ki: 1950 nM
[3]
  Ki: 65 nM
[4]
  Ki: 1.9 nM

## C[C@H]1COCCN1c1nc2c(c(-c3ccc(F)cc3)n1)CNCC2 [Example 45, 4-(4-Fluoro-phenyl)-2-(3-methyl-morpholin-4-yl)-5,6,7,8-tetrahydro-pyrido[4,3-d]pyrimidine]
Rat 5-HT7a receptor
  Ki: > 10000 nM
[1]
  Ki: 1200 nM
[2]
  Ki: 3390 nM
[3]
  Ki: 2500 nM
[4]
  Ki: 24 nM

## Cc1ccc(-c2nc(N3CCCC3)nc3c2CN(C)CC3)cc1 [Example 52, 6-Methyl-2-pyrrolidin-1-yl-4-p-tolyl-5,6,7,8-tetrahydro-pyrido[4,3-d]pyrimidine]
Rat 5-HT7a receptor
  Ki: > 10000 nM
[1]
  Ki: 500 nM
[2]
  Ki: 977 nM
[3]
  Ki: 500 nM
[4]
  Ki: 120 nM

## CCN(CC)c1nc2c(c(-c3ccc(C#N)cc3)n1)CCCNC2 [Example 4, 4-(2-Diethylamino-6,7,8,9-tetrahydro-5H-pyrimido[4,5-c]azepin-4-yl)-benzonitrile]
Rat 5-HT7a receptor
  Ki: 920 nM
[1]
  Ki: 100 nM
[2]
  Ki: 3750 nM
[3]
  Ki: 9000 nM
[4]
  Ki: 240 nM
